Legend:
Mus musculus [1] = test: Antiinflammatory activity in xylene-induced Kunming mouse ear edema model assessed as suppression of ear swelling at 300 mg/kg, po; format: functional
Mus musculus [2] = test: Antiinflammatory activity in xylene-induced Kunming mouse ear edema model assessed as suppression of ear swelling at 150 mg/kg, po; format: functional
Mus musculus [3] = test: Antiinflammatory activity in xylene-induced Kunming mouse ear edema model assessed as suppression of ear swelling at 75 mg/kg, po; format: functional
Mus musculus [4] = test: Cardiotoxicity in Kunming mouse assessed as pathological changes at 150 mg/kg, po after 12 days; format: toxicity, organism-based; design: dose 150 mg/kg, route oral; details: in vivo, 288 h
Mus musculus [5] = test: Antiinflammatory activity in xylene-induced Kunming mouse ear edema model assessed as suppression of ear swelling at 100 mg/kg, po; format: functional
Mus musculus [6] = test: Cardiotoxicity in Kunming mouse assessed as pathological changes at 100 mg/kg, po after 12 days; format: toxicity, organism-based; design: dose 100 mg/kg, route oral; details: in vivo, 288 h

Row | Structure (SMILES) | Activity (Mus musculus [1]) [%] | Activity (Mus musculus [3]) [%] | further results
1 | COc1cc(/C=C(/C(=O)O)c2ccc(S(C)(=O)=O)cc2)ccc1OC(C)=O | 45.29 | 12.38 | Activity (Mus musculus [2]): 26.12%; Activity (Mus musculus [4]): Non-toxic
2 | COc1ccc2c(c1)c(CC(=O)O)c(C)n2C(=O)c1ccc(Cl)cc1 [INDOMETHACIN] |  |  | Activity (Mus musculus [5]): 37.03%; Activity (Mus musculus [6]): Non-toxic
3 | CS(=O)(=O)c1ccc(/C(=C\c2ccccc2)C(=O)O)cc1 | 17.49 |  | 
4 | CC(=O)Oc1ccc(/C=C(/C(=O)O)c2ccc(S(C)(=O)=O)cc2)cc1 | 44.75 | 23.34 | Activity (Mus musculus [2]): 32.87%
5 | CCOC(=O)/C(=C/c1ccc(OC(C)=O)c(OC)c1)c1ccc(S(C)(=O)=O)cc1 | 24.11 |  | 
6 | COc1cc(/C=C(/C(=O)O)c2ccc(S(C)(=O)=O)cc2)ccc1O | 9.97 |  | 
7 | COc1ccc(/C=C(/C(=O)O)c2ccc(S(C)(=O)=O)cc2)cc1OC | 15.92 |  | 
8 | COc1cc(/C=C(/C(=O)O)c2ccccc2)ccc1OC(C)=O | 21.86 |  | 
9 | CCOC(=O)/C(=C/c1ccc(O)c(OC)c1)c1ccc(S(C)(=O)=O)cc1 | 34.62 |  | 
10 | CCOC(=O)/C(=C/c1ccc(OC(C)=O)c(Br)c1)c1ccc(S(C)(=O)=O)cc1 |  | 0 | 

Reference: ChEMBL document CHEMBL1681649, “Design, synthesis and biological evaluation of novel 4-hydroxybenzene acrylic acid derivatives” (Bioorg Med Chem Lett, 2011)
